Experimental data published in paper PMC9220922, “Givinostat-Liposomes: Anti-Tumor Effect on 2D and 3D Glioblastoma Models and Pharmacokinetics” (Cancers, 2022).
Blank lines part the entries; values can stand above or below the compound they belong to.

How the values were obtained:
[1] = MTT cytotoxicity, healthy astrocytes; format: cell-based; conditions: human, normal human astrocytes (NHA), doses between 0.1 and 10 μM, read-out: cell viability
Method: (§1) Gli36ΔEGFR-2 and U87-MG were used as GBM in vitro models. Gli36ΔEGFR [27, 28], carrying the EGFRvIII mutation, was made resistant to TMZ after 1 month of in vitro exposure to 50 µM TMZ [29]. These cells were selected because the TMZ sensitivity was repeatedly tested in vitro and in vivo in orthotopic GBM models. Both Gli36ΔEGFR-2 and U87-MG were maintained in Dulbecco’s Modified Eagle Medium (DMEM) High Glucose w/o sodium pyruvate (ECM0101L, Euroclone, Milan, Italy) supplemented with 10% fetal bovine serum (FBS, ECS0180L, Euroclone, Milan, Italy), 4 mM L-glutamine (ECB3000D, Euroclone, Milan, Italy), and 100 U ml^−1 penicillin/streptomycin (P/S) (ECB3001B, Euroclone, Milan, Italy). Normal human astrocytes (NHAs, CC-2565, Lonza, Basel, Switzerland) were used as healthy astrocytes and maintained in AGM^TM Astrocyte Growth Medium BulletKit^TM (CC-3186, Lonza) as per the manufacturer’s protocol. Human cerebral microvascular endothelial cells (hCMECs), provided by Dr. S. Bourdoulous (Institut Cochin, Inserm, Paris, France), were used as a model of brain endothelial cells and cultured as reported in the literature. […]
(§2) The effect of free or encapsulated Givinostat was assessed by the MTT assay. […] At the designated times, the assay was performed as per the manufacturer’s protocol and absorbance was measured at 570 nm using a microplate reader (SPECTROstar Nano, BMG LABTECH, Ortenberg, Germany). […]

[2] = Brain penetration after i.v. injection (LC-MS/MS); format: in vivo, Swiss CD1 mice; conditions: mice
Method: (§3) Mice were sacrificed at different time points up to 48 h after the injection and blood and brain were harvested. Blood was collected from the cava vein in tubes coated with Li-heparin anticoagulant and centrifuged at +4 °C, 3000 g for 10 min to obtain the plasma. After blood collection, brain was harvested, washed in saline, dried on absorbent paper, weighed, and placed into appropriate tubes. All samples were analyzed for their Givinostat content using the LC-MS/MS method. Stock solution of Givinostat, […]2375 (metabolites), and internal standard ITF2400 were prepared in ACN/water 1:1 at 1 mg/mL. Working solutions were prepared by sequential dilution in water:ACN 8:2. Brains were homogenized in 20 mM ammonium formate buffer (1 g/5 mL). In total, 45 μL of blank plasma or brain homogenates was added to 200 μL of ACN containing ITF2400 at 25 ng/mL and acted as internal standards. Samples were vortexed for 3 min and centrifuged for 10 min at 5 °C at […]. Samples were transferred into a 96-well plate, dried under nitrogen flow, and resuspended in 200 μL 0.1% FA H2O/ACN (75:25). After vortexing, samples were injected into LC-MS/MS. Samples were analyzed on a UPLC Acquity (Waters, Milford, MA, USA) coupled with an API 3200 Triple Quadrupole (ABSciex). Mobile phases were water and ACN with 0.1% FA on a Kinetex 2.6 μm C18 100 A 75 × 3 mm (Phenomenex, Torrance, CA, USA). Analytes were quantified in MRM ESI positive mode. […] Pharmacokinetic parameters were calculated using Excel Add in (PK Solver 2.0, Excel 2007 Microsoft add in). AUCs were calculated using an NCA by the linear trapezoidal rule, and a uniform weight was performed as a first approach. Graphical concentration-time curves were produced after Log transformation. The ke was estimated from the terminal part of the log-concentration-time plot including at least three data points excluding the Cmax.

[3] = test system: Gli36ΔEGFR-2; assay: MTT cytotoxicity, GBM cells; format: cell-based; conditions: Homo sapiens, 24 h of treatment, read-out: mean calculated IC50
Method: as §1, §2

[4] = test system: LRP1; assay: Immunoblot of receptor level in Gli36ΔEGFR-2; format: cell-based, human; conditions: Western blot; Figure 8 legend: LIP-GIV
Method: (§4) Whole cell lysates were obtained by washing cells twice in cold PBS and harvesting in 60 μL of radioimmunoprecipitation assay (RIPA) buffer (cat. no. 89901, ThermoFisher) supplemented with 1% of protease and phosphatase inhibitor cocktail (cat. no. 78446, ThermoFisher). Whole cell lysates were quantified using a BCA Protein Assay Kit (cat. No. 23227, ThermoFisher) and separated by electrophoresis through precast gels (NuPAGE^TM 4–12% Bis-Tris, 1.0 mm, Mini Protein Gel 10 or 15-wells, cat. No. NP0321 and NP0323, ThermoFisher).
(§5) Proteins were transferred to nitrocellulose membranes using iBlot^TM Transfer Stack (cat. No. IB301002, ThermoFisher) and membranes were blocked either in 5% milk or in 5% BSA in TBS with 0.1% Tween-20 (TBST) for 1 h. Membranes were then incubated overnight at 4 °C with the following primary antibodies: Acetyl-α-Tubulin (5335, 1:1000), α-Tubulin (2144, 1:1000), Histone H3 (9715, 1:1000) and β-Tubulin (2146, 1:1000) purchased from CST; β-Actin (MA5-15739, 1:5000), GAPDH (MA1-16757, 1:5000), VLDLR (MA5-24790, 1:1000), ABCA1 (PA1-16789, 1:500), LRP1 (MA1-27198, 1:500), and LDLR (PA5-22976, 1:1000) purchased from ThermoFisher. Membranes were incubated with secondary anti-rabbit antibody (A0545, 1:5000, Merck) or anti-mouse antibody (G21040, 1:20,000, Invitrogen) for 1 h at RT. Bands were detected using Immobilion ECL Ultra Western HRP Substrate (WBULS0100, Merck) under chemiluminescence using an Amersham Imager 600 (Cytiva, Marlborough MA, USA). Quantifications were made using ImageLab Software Version 6.1 (Bio-Rad, www.bio-rad.com).

[5] = test system: LDLR; assay: Immunoblot of receptor level in Gli36ΔEGFR-2; format: cell-based, human; conditions: Western blot; Figure 8 legend: LIP-GIV
Method: as §4, §5

[6] = test system: VLDLR; assay: Immunoblot of receptor level in Gli36ΔEGFR-2; format: cell-based, human; conditions: Western blot; Figure 8 legend: LIP-GIV
Method: as §4, §5

[7] = test system: ABCA1; assay: Immunoblot of ABCA1 level in Gli36ΔEGFR-2; format: cell-based, human; conditions: Western blot; Figure 8 legend: LIP-GIV, 24 h
Method: as §4
Proteins were transferred to nitrocellulose membranes using iBlot^TM Transfer Stack (cat. No. IB301002, ThermoFisher) and membranes were blocked either in 5% milk or in 5% BSA in TBS with 0.1% Tween-20 (TBST) for 1 h. […] Bands were detected using Immobilion ECL Ultra Western HRP Substrate (WBULS0100, Merck) under chemiluminescence using an Amersham Imager 600 (Cytiva, Marlborough MA, USA). Quantifications were made using ImageLab Software Version 6.1 (Bio-Rad, www.bio-rad.com).

[8] = Plasma pharmacokinetics after i.v. injection (LC-MS/MS); format: in vivo; conditions: Swiss CD1, mouse, iv, mice
Method: as §3

[9] = test system: U87-MG; set-up: method as in PMID 25053824; conditions: cited from earlier work
[10] = test system: T98G; set-up: method as in PMID 25053824; conditions: cited from earlier work

Kp ([2]; Swiss CD1, mouse, brain and plasma, iv, 7.5 mg/kg single i.v., read-out: AUCbrain/AUCplasma ratio): 0.372 | concentration at 5 min ([2]; Swiss CD1, mouse, brain, iv, 7.5 mg/kg i.v., 5 min, read-out: Givinostat brain level): 102 ng/g | concentration at 10 min ([2]; Swiss CD1, mouse, brain, iv, 7.5 mg/kg i.v., 10 min, read-out: Givinostat brain level): 101 ng/g | concentration at 0.25 h ([2]; Swiss CD1, mouse, brain, iv, 7.5 mg/kg i.v., 0.25 h, read-out: Givinostat brain level): 90 ng/g | concentration at 0.5 h ([2]; Swiss CD1, mouse, brain, iv, 7.5 mg/kg i.v., 0.5 h, read-out: Givinostat brain level): 83 ng/g | concentration at 1 h ([2]; Swiss CD1, mouse, brain, iv, 7.5 mg/kg i.v., 1 h, read-out: Givinostat brain level): 44 ng/g | concentration at 2 h ([2]; Swiss CD1, mouse, brain, iv, 7.5 mg/kg i.v., 2 h, read-out: Givinostat brain level): 30 ng/g | concentration at 4 h ([2]; Swiss CD1, mouse, brain, iv, 7.5 mg/kg i.v., 4 h, read-out: Givinostat brain level): 13 ng/g | concentration at 6 h ([2]; Swiss CD1, mouse, brain, iv, 7.5 mg/kg i.v., 6 h, read-out: Givinostat brain level): 7 ng/g | Cmax ([2]; Swiss CD1, mouse, brain, iv, 7.5 mg/kg single i.v.): ~100 ng/g | Givinostat brain level ([2]; 7.5 mg/kg i.v., 24 h): below detection limits | LRP1 protein level [4]: significantly reduced | LDLR protein level [5]: significantly reduced | VLDLR protein level [6]: significantly reduced | concentration at 5 min ([8]; 7.5 mg/kg i.v., 5 min, read-out: Givinostat plasma level): 1030 ng/mL | concentration at 10 min ([8]; 7.5 mg/kg i.v., 10 min, read-out: Givinostat plasma level): 597 ng/mL | concentration at 0.25 h ([8]; 7.5 mg/kg i.v., 0.25 h, read-out: Givinostat plasma level): 431 ng/mL | concentration at 0.5 h ([8]; 7.5 mg/kg i.v., 0.5 h, read-out: Givinostat plasma level): 256 ng/mL | concentration at 1 h ([8]; 7.5 mg/kg i.v., 1 h, read-out: Givinostat plasma level): 75 ng/mL | concentration at 2 h ([8]; 7.5 mg/kg i.v., 2 h, read-out: Givinostat plasma level): 19 ng/mL | concentration at 4 h ([8]; 7.5 mg/kg i.v., 4 h, read-out: Givinostat plasma level): 6 ng/mL | concentration at 6 h ([8]; 7.5 mg/kg i.v., 6 h, read-out: Givinostat plasma level): 4 ng/mL | MRT last ([8]; 7.5 mg/kg single i.v., read-out: mean residence time (MRT0-t)): 0.6 h | clearance ([8]; 7.5 mg/kg single i.v., read-out: plasma clearance (CL) (converted)): 257 mL/min/kg | AUC(0-t) ([8]; 7.5 mg/kg single i.v., read-out: plasma exposure (AUC0-t)): 478 ng·h/mL | Vd ([8]; 7.5 mg/kg single i.v., read-out: volume of distribution): 10.8 L/kg | half-life ([8]; Givinostat 7.5 mg/kg single i.v., read-out: half-life (t1/2) (converted)): 1.7 h
SMILES: CCN(CC)Cc1ccc2cc(COC(=O)Nc3ccc(C(=O)NO)cc3)ccc2c1 [Givinostat, [6-diethylaminomethyl) naphtalen-2-yl] methyl N-[4-(hydroxycarbamoyl) phenyl] carbamate]
viability at 24 h [1]: ≥ 100% | IC50 [3]: 0.75 µM | ABCA1 expression [7]: non-significant trend towards a decrease

SMILES: Cn1nnc2c(C(N)=O)ncn2c1=O [TMZ, temozolomide]
IC50 [9]: 100 to 500 µM | IC50 [10]: 100 to 500 µM
